Data from patent publication US20210253747A1, “COMPOSITIONS OF SOLUBLE BETA GLUCAN AND RELATED METHODS” (KEMIN INDUSTRIES, INC., priority 2020, published 2021).

Parameters: Initial absorbance (@600 nm): dose or concentration left out as unconfirmed
Source text: The final criteria for the claimed composition is the ability for the dry product to redissolve into a soluble/colloidal water-based solution at an example concentration of 10 g/L. Before redissolving in water, the dry product is ground into a powder using any mechanical grinding/milling/pulverizing methods, in this case a mortar and pestle.

Absorbance at 60 min/Initial absorbance: 0.535 | Initial absorbance (@600 nm): 1.950 | Solubility as defined by the absorbance method (soluble if the decrease is not more than 25% after 60 minutes): NOT SOLUBLE
Substance: paramylon [Sample A]
